The subject of one assay is sarcoglycan gamma. Kind of assay: Addition of known cellulite-improving drugs to cultured fibroblasts, sarcoglycan gamma expression by quantitative PCR. Conditions: fibroblasts derived from human skin tissue, serum-free medium, 24 hours; conjugated linoleic acid 0.001% and 0.01% v/v, nicotinamide 0.0005% and 0.005% v/v; mRNA vs control. Format: cell-based. How it is done:
(§1) Quantitative RT-PCR was carried out by using synthesized cDNA as the template, and further by using a reaction reagent LightCycler (registered trademark) FastStart DNA MasterPlus SYBR Green (Roche), and a reaction instrument LightCycler (Roche) or AB 7900 HT Fast Real-Time PCR System (Applied Biosystems). The condition for composition was as described in Roche's protocol. The annealing temperature of the primers was set at 60° C., and quantitated by using ΔΔCt method.
(§2) Fibroblasts derived from human skin tissue were plated in a 24-well type I collagen-coated dish (IWAKI), and cultured to 70-80% confluence in a 10% bovine fetal serum-supplemented DMEM (Gibco/Invitrogen) under the condition of 37° C. and 5% CO2. After replacing with a serum-free medium for half a day, it was further replaced with a serum-free medium with varying concentrations of conjugated linoleic acid (Sigma) (0.001% v/v, 0.01% v/v) or nicotinamide (Sigma) (0.0005% v/v, 0.005% v/v). 24 hours later, RNA was recovered by using RNeasy mini kit (Qiagen) according to Qiagen's protocol. As a control, RNA prepared and recovered by substituting the medium with an intact serum-free medium, and recovering RNA 24 hours later was used. The concentration of the recovered RNA was determined using a nucleic acid quantitation instrument Nanodrop (Thermo Scientific). […]

A further assay has as its system cellulite. Conditions: applied on the affected cellulite site; Patent Literature 1 and 2, Non-patent Literature 8; cited from earlier work.
The subject of a further assay is fibulin-3. Kind of assay: Addition of known cellulite-improving drugs to cultured fibroblasts, fibulin-3 expression by quantitative PCR. It counts as cell-based. Conditions: fibroblasts derived from human skin tissue, serum-free medium, 24 hours; conjugated linoleic acid 0.001% and 0.01% v/v, nicotinamide 0.0005% and 0.005% v/v; mRNA vs control. As for the experimental part: as §1, §2

The source of these data is patent US10718782B2, “Method of evaluating cellulite and method of evaluating cellulite-effective drug using fibulin-3 and/or sarcoglycan gamma as an indicator” (Shiseido Company, Ltd., priority 2012, dated 2020).

Take conjugated linoleic acid: the “expression of sarcoglycan gamma” value in the assay with sarcoglycan gamma was “enhanced the expression of fibulin-3 and sarcoglycan in a dose-dependent manner”. Besides, in the assay with cellulite, the alleviation of cellulite entry is listed as “alleviate cellulite”. In addition, in the assay with fibulin-3, the “expression of fibulin-3” value was “enhanced the expression of fibulin-3 and sarcoglycan in a dose-dependent manner”.
For the compound sulfocarbiose, the alleviation of cellulite result in the assay with cellulite is “alleviate cellulite”.
Consider `NC(=O)c1cccnc1` [nicotinamide], for which the “expression of sarcoglycan gamma” value in the assay with sarcoglycan gamma was “enhanced the expression of fibulin-3 and sarcoglycan in a dose-dependent manner”. For the same compound, the alleviation of cellulite entry with cellulite is given as “alleviate cellulite”. Also, the “expression of fibulin-3” value in the assay on fibulin-3 is “enhanced the expression of fibulin-3 and sarcoglycan in a dose-dependent manner”.
